Key:
[1] = system: Phytophthora infestans; test: whole plant or invertebrate; assay type: in vivo; conditions: for pest or weed control at 50 ppm: Phytophthora infestans, in Solanum lycopersicum, read-out: control (disease severity) compared to the untreated check; for control (disease severity) compared to the untreated check: 50 ppm spray, preventive, Tomato plants inoculated one day after treatment
[2] = system: Plasmopara viticola; test: Plasmopara viticola test in grape, preventive; assay type: in vivo; conditions: 50 ppm spray, grape seedlings inoculated one day after treatment; for pest or weed control at 50 ppm: Plasmopara viticola, read-out: control (disease severity) compared to the untreated check
Description: Example B: Plasmopara viticola Test in Grape
Compounds were dissolved in 2% DMSO/Acetone & then mixed with water to calibrated spray volume of 50 ml. This 50 ml spray solution was poured into the spray bottles for further applications.
To test the preventive activity of compounds, five week old healthy grape seedlings raised in the greenhouse were sprayed with active compound preparation at the stated application rates inside the spray cabinets using hallow-cone nozzles. One day after treatment, the plants were inoculated with inoculum suspension (Cold sterile water) containing 6×10^6 Plasmopara viticola inoculum. The inoculated plants were then kept in greenhouse chamber at 18-21° C. temperature and 95-100% relative humidity for disease expression. Compounds
A visual assessment of compound's performance was carried by rating the disease severity (0-100% scale) on treated plants on 3, 7, 10 and 15 days after application. Efficacy (% control) of the compounds was calculated by comparing the disease rating in the treatment with untreated control. The sprayed plants were also assessed for compound's phytotoxic effects by recording symptoms like necrosis, chlorosis and stunting.

[3] = system: Phytophthora infestans; test: microbe, parasite or virus in culture; assay type: cell-based; conditions: for inhibition of growth at 30 ppm: Phytophthora infestans, 168 h, read-out: control (radial growth) compared to the untreated check; for control (radial growth) compared to the untreated check: 30 ppm in Rye Agar medium, seven days at 18° C.

SMILES | pest or weed control at 50 ppm [1] [%] | pest or weed control at 50 ppm [2] [%] | inhibition of growth at 30 ppm [3] [%] | control (disease severity) compared to the untreated check [1] [%] | control (disease severity) compared to the untreated check [2] [%] | control (radial growth) compared to the untreated check [3] [%]
O=C(COc1ncc(Cl)cc1C(F)(F)F)N1CCC(c2nc(C3=NOC(c4c(F)cccc4F)C3)cs2)CC1 (centres unmarked) [Compound 33] | 90 | 90 | 70 |  |  | 
Cc1cccnc1OCC(=O)N1CCC(c2nc(C3=NOC(c4c(F)cccc4F)C3)cs2)CC1 (centres unmarked) [Compound 77, 1-(4-(4-(5-(2,6-difluorophenyl)-4,5-dihydroisoxazol-3-yl)thiazol-2-yl)piperidin-1-yl)-2-((3-methylpyridin-2-yl)oxy)ethan-1-one] | 90 | 90 | 70 |  |  | 
O=C(COc1ncc(Cl)cc1C(F)(F)F)N1CCC(c2nc(C3=NOC(c4c(Cl)cccc4Cl)C3)cs2)CC1 (centres unmarked) [Compound 31, 2-((5-chloro-3-(trifluoromethyl)pyridin-2-yl)oxy)-1-(4-(4-(5-(2,6-dichlorophenyl)-4,5-dihydroisoxazol-3-yl)thiazol-2-yl)piperidin-1-yl)ethan-1-one] | 90 | 90 | 70 |  |  | 
O=C(COc1ncccc1C(F)(F)F)N1CCC(c2nc(C3=NOC(c4c(Cl)cc(Cl)cc4Cl)C3)cs2)CC1 (centres unmarked) [Compound 30, 1-(4-(4-(5-(2,4,6-trichlorophenyl)-4,5-dihydroisoxazol-3-yl)thiazol-2-yl)piperidin-1-yl)-2-((3-(trifluoromethyl)pyridin-2-yl)oxy)ethan-1-one] | 90 | 90 | 70 |  |  | 
CS(=O)(=O)Oc1cccc(Cl)c1C1CC(c2csc(C3CCN(C(=O)CSc4ncccc4C(F)(F)F)CC3)n2)=NO1 (centres unmarked) [Compound 61, 3-chloro-2-(3-(2-(1-(2-((3-(trifluoromethyl)pyridin-2-yl)thio)acetyl)piperidin-4-yl)thiazol-4-yl)-4,5-dihydroisoxazol-5-yl)phenyl methanesulfonate] | 90 | 90 | 70 |  |  | 
O=C(COc1ncc(Cl)cc1C(F)(F)F)N1CCC(c2nc(C3=NOC(c4c(Cl)cc(Cl)cc4Cl)C3)cs2)CC1 (centres unmarked) [Compound 34] | 90 | 90 | 70 |  |  | 
CS(=O)(=O)Oc1cccc(Cl)c1C1CC(c2csc(C3CCN(C(=O)COc4ncc(C(F)(F)F)cc4Br)CC3)n2)=NO1 (centres unmarked) [Compound 52] | 90 | 90 | 70 |  |  | 
O=C(COc1ncc(Br)cc1C(F)(F)F)N1CCC(c2nc(C3=NOC(c4c(Cl)cccc4Cl)C3)cs2)CC1 (centres unmarked) [Compound 35, 2-((5-bromo-3-(trifluoromethyl)pyridin-2-yl)oxy)-1-(4-(4-(5-(2,6-dichlorophenyl)-4,5-dihydroisoxazol-3-yl)thiazol-2-yl)piperidin-1-yl)ethan-1-one] | 90 | 90 | 70 |  |  | 
CS(=O)(=O)Oc1cccc(Cl)c1C1CC(c2csc(C3CCN(C(=O)COc4ncc(Cl)cc4C(F)(F)F)CC3)n2)=NO1 (centres unmarked) [Compound 32, 3-chloro-2-(3-(2-(1-(2-((5-chloro-3-(trifluoromethyl)pyridin-2-yl)oxy)acetyl)piperidin-4-yl)thiazol-4-yl)-4,5-dihydroisoxazol-5-yl)phenyl methanesulfonate] | 90 | 90 | 70 |  |  | 
O=C(COc1ncc(Br)cc1C(F)(F)F)N1CCC(c2nc(C3=NOC(c4c(Cl)cc(Cl)cc4Cl)C3)cs2)CC1 (centres unmarked) [Compound 38] |  |  |  | 90 | 90 | 70
Cc1ccc(C(F)(F)F)c(OCC(=O)N2CCC(c3nc(C4=NOC(c5c(Cl)cccc5Cl)C4)cs3)CC2)n1 (centres unmarked) [Compound 41, 1-(4-(4-(5-(2,6-dichlorophenyl)-4,5-dihydroisoxazol-3-yl)thiazol-2-yl)piperidin-1-yl)-2-((6-methyl-3-(trifluoromethyl)pyridin-2-yl)oxy)ethan-1-one] | 90 | 90 | 70 |  |  | 
Cn1nc(C(F)(F)F)cc1OCC(=O)N1CCC(c2nc(C3=NOC(c4c(Cl)cc(Cl)cc4Cl)C3)cs2)CC1 (centres unmarked) [Compound 10, 2-((1-methyl-3-(trifluoromethyl)-1H-pyrazol-5-yl)oxy)-1-(4-(4-(5-(2,4,6-trichlorophenyl)-4,5-dihydroisoxazol-3-yl)thiazol-2-yl)piperidin-1-yl)ethan-1-one] | 90 | 90 | 70 |  |  | 
Cc1ccc(C(F)(F)F)c(OCC(=O)N2CCC(c3nc(C4=NOC(c5c(F)cccc5F)C4)cs3)CC2)n1 (centres unmarked) [Compound 40, 1-(4-(4-(5-(2,6-difluorophenyl)-4,5-dihydroisoxazol-3-yl)thiazol-2-yl)piperidin-1-yl)-2-((6-methyl-3-(trifluoromethyl)pyridin-2-yl)oxy)ethan-1-one] | 90 |  | 70 |  |  | 
CS(=O)(=O)Oc1cccc(Cl)c1C1CC(c2csc(C3CCN(C(=O)COc4ncccc4C(F)(F)F)CC3)n2)=NO1 (centres unmarked) [Compound 28, 3-chloro-2-(3-(2-(1-(2-((3-(trifluoromethyl)pyridin-2-yl)oxy)acetyl)piperidin-4-yl)thiazol-4-yl)-4,5-dihydroisoxazol-5-yl)phenyl methanesulfonate] | 90 |  | 70 |  |  | 
CS(=O)(=O)Oc1cccc(Cl)c1C1CC(c2csc(C3CCN(C(=O)COc4ncc(Br)cc4C(F)(F)F)CC3)n2)=NO1 (centres unmarked) [Compound 36] | 90 | 90 | 70 |  |  | 
O=C(COc1ncccc1C(F)F)N1CCC(c2nc(C3=NOC(c4c(Cl)cc(Cl)cc4Cl)C3)cs2)CC1 (centres unmarked) [Compound 87] | 90 | 90 | 70 |  |  | 
O=C(COc1ncccc1C(F)(F)F)N1CCC(c2nc(C3=NOC(c4c(F)cccc4F)C3)cs2)CC1 (centres unmarked) [Compound 29, 1-(4-(4-(5-(2,6-difluorophenyl)-4,5-dihydroisoxazol-3-yl)thiazol-2-yl)piperidin-1-yl)-2-((3-(trifluoromethyl)pyridin-2-yl)oxy) ethan-1-one] | 90 | 90 | 70 |  |  | 
Cc1ccc(C(F)(F)F)c(OCC(=O)N2CCC(c3nc(C4=NOC(c5c(Cl)cccc5OS(C)(=O)=O)C4)cs3)CC2)n1 (centres unmarked) [Compound 42, 3-chloro-2-(3-(2-(1-(2-((6-methyl-3-(trifluoromethyl)pyridin-2-yl)oxy)acetyl)piperidin-4-yl)thiazol-4-yl)-4,5-dihydroisoxazol-5-yl)phenyl methanesulfonate] | 90 | 90 | 70 |  |  | 
O=C(CSc1ncccc1C(F)(F)F)N1CCC(c2nc(C3=NOC(c4c(F)cccc4F)C3)cs2)CC1 (centres unmarked) [Compound 62, 1-(4-(4-(5-(2,6-difluorophenyl)-4,5-dihydroisoxazol-3-yl)thiazol-2-yl)piperidin-1-yl)-2-((3-(trifluoromethyl)pyridin-2-yl)thio)ethan-1-one] | 90 | 90 | 70 |  |  | 
O=C(COc1ncc(Br)cc1C(F)(F)F)N1CCC(c2nc(C3=NOC(c4c(F)cccc4F)C3)cs2)CC1 (centres unmarked) [Compound 37, 2-((5-bromo-3-(trifluoromethyl)pyridin-2-yl)oxy)-1-(4-(4-(5-(2,6-difluorophenyl)-4,5-dihydroisoxazol-3-yl)thiazol-2-yl)piperidin-1-yl)ethan-1-one] | 90 | 90 | 70 |  |  | 
Cc1cccnc1OCC(=O)N1CCC(c2nc(C3=NOC(c4c(Cl)cccc4Cl)C3)cs2)CC1 (centres unmarked) [Compound 76, 1-(4-(4-(5-(2,6-dichlorophenyl)-4,5-dihydroisoxazol-3-yl)thiazol-2-yl)piperidin-1-yl)-2-((3-methylpyridin-2-yl)oxy)ethan-1-one] | 90 | 90 | 70 |  |  | 
COc1ccc(C2CC(c3csc(C4CCN(C(=O)COc5ncc(Cl)cc5C(F)(F)F)CC4)n3)=NO2)cc1 (centres unmarked) [Compound 67] |  |  |  | 90 |  | 70
CS(=O)(=O)Oc1cccc(Cl)c1C1CC(c2csc(C3CCN(C(=O)COc4ncccc4C(F)F)CC3)n2)=NO1 (centres unmarked) [Compound 89, 3-chloro-2-(3-(2-(1-(2-((3-(difluoromethyl)pyridin-2-yl)oxy)acetyl)piperidin-4-yl)thiazol-4-yl)-4,5-dihydroisoxazol-5-yl)phenyl methanesulfonate] |  |  | 70 |  |  | 
Cc1cnc(OCC(=O)N2CCC(c3nc(C4=NOC(c5c(Cl)cc(Cl)cc5Cl)C4)cs3)CC2)c(C(F)(F)F)c1 (centres unmarked) [Compound 83, 2-((5-methyl-3-(trifluoromethyl)pyridin-2-yl)oxy)-1-(4-(4-(5-(2,4,6-trichlorophenyl)-4,5-dihydroisoxazol-3-yl)thiazol-2-yl)piperidin-1-yl)ethan-1-one] |  |  | 70 |  |  | 
